# Tested on: NOMO1
# Assay: cell viability relative to DMSO control; higher = less cytotoxic
# Conditions: 48 h
# How it was run: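 Three leukemia lines were tested: NOMO1 and SEM at 500 cells/well and P12-Ichikawa at 1000 cells/well. Each was adapted for at least four passages in each medium and seeded in 5 μl in 1536-well plates, and library compounds in DMSO were pin-dosed from 47 μM to 0.79 nM in 11 threefold steps. After 48 h at 37°C, CellTiter-Glo One luminescence was read. Viability is a percentage relative to DMSO wells on each plate, with cell-free wells as background.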
# [1] = HPLM + 10% dialyzed FBS, 0.000781 µM
# [2] = HPLM + 10% dialyzed FBS, 0.00234 µM
# [3] = HPLM + 10% dialyzed FBS, 0.00702 µM
# [4] = HPLM + 10% dialyzed FBS, 0.0211 µM
# [5] = HPLM + 10% dialyzed FBS, 0.0632 µM
# [6] = HPLM + 10% dialyzed FBS, 0.19 µM
# [7] = HPLM + 10% dialyzed FBS, 0.569 µM
# [8] = HPLM + 10% dialyzed FBS, 1.71 µM
# [9] = HPLM + 10% dialyzed FBS, 5.12 µM
# [10] = HPLM + 10% dialyzed FBS, 15.4 µM
# [11] = HPLM + 10% dialyzed FBS, 46.1 µM
# [12] = RPMI 5 mM glucose + 10% FBS, 0.000781 µM
# [13] = RPMI 5 mM glucose + 10% FBS, 0.00234 µM
# [14] = RPMI 5 mM glucose + 10% FBS, 0.00702 µM
# [15] = RPMI 5 mM glucose + 10% FBS, 0.0211 µM
# [16] = RPMI 5 mM glucose + 10% FBS, 0.0632 µM
# [17] = RPMI 5 mM glucose + 10% FBS, 0.19 µM
# [18] = RPMI 5 mM glucose + 10% FBS, 0.569 µM
# [19] = RPMI 5 mM glucose + 10% FBS, 1.71 µM
# [20] = RPMI 5 mM glucose + 10% FBS, 5.12 µM
# [21] = RPMI 5 mM glucose + 10% FBS, 15.4 µM
# [22] = RPMI 5 mM glucose + 10% FBS, 46.1 µM
# [23] = RPMI 5 mM glucose + 10% dialyzed FBS, 0.000781 µM
# [24] = RPMI 5 mM glucose + 10% dialyzed FBS, 0.00234 µM
# [25] = RPMI 5 mM glucose + 10% dialyzed FBS, 0.00702 µM
# [26] = RPMI 5 mM glucose + 10% dialyzed FBS, 0.0211 µM
# [27] = RPMI 5 mM glucose + 10% dialyzed FBS, 0.0632 µM
# [28] = RPMI 5 mM glucose + 10% dialyzed FBS, 0.19 µM
# [29] = RPMI 5 mM glucose + 10% dialyzed FBS, 0.569 µM
# [30] = RPMI 5 mM glucose + 10% dialyzed FBS, 1.71 µM
# [31] = RPMI 5 mM glucose + 10% dialyzed FBS, 5.12 µM
# [32] = RPMI 5 mM glucose + 10% dialyzed FBS, 15.4 µM
# [33] = RPMI 5 mM glucose + 10% dialyzed FBS, 46.1 µM
Compound,cell viability [1] [%],cell viability [2] [%],cell viability [3] [%],cell viability [4] [%],cell viability [5] [%],cell viability [6] [%],cell viability [7] [%],cell viability [8] [%],cell viability [9] [%],cell viability [10] [%],cell viability [11] [%],cell viability [12] [%],cell viability [13] [%],cell viability [14] [%],cell viability [15] [%],cell viability [16] [%],cell viability [17] [%],cell viability [18] [%],cell viability [19] [%],cell viability [20] [%],cell viability [21] [%],cell viability [22] [%],cell viability [23] [%],cell viability [24] [%],cell viability [25] [%],cell viability [26] [%],cell viability [27] [%],cell viability [28] [%],cell viability [29] [%],cell viability [30] [%],cell viability [31] [%],cell viability [32] [%],cell viability [33] [%]
CC(C)Cc1ccc(C(C)C(=O)O)cc1 (configuration not stated),84.6,106,96.7,115,95.6,102,90.6,102,82,91.4,89.7,79.4,93.9,94.3,87.3,97.2,83.9,97.9,86.7,83.9,86.1,89.6,85.6,83,77.8,85.4,72.7,82.2,76.5,91.6,81.9,80.5,82.1
COc1cccc2c1[C@]13CCN(CC4CC4)[C@H](C2)[C@]1(OC)CCC(=O)C3,89.7,96.5,127,121,118,119,116,129,122,82.2,111,101,111,103,124,126,117,132,125,133,110,124,106,108,106,111,110,116,109,111,105,106,105
C[S+](=O)([O-])c1ccc(Oc2cc(F)cc(C#N)c2)c2c1[C@H](O)C(F)(F)C2,96.5,123,123,112,119,119,139,126,112,120,121,92.7,111,101,103,119,117,101,112,124,108,114,97.4,102,103,109,111,127,123,125,117,125,114
CCOC1=CC=CC=C1N\2C(=O)C3=C(C=CC=C3)\N=C2C(C)N4CCN(CC4)C(=O)COC5=CC=C(Cl)C=C5 (configuration not stated),–,–,–,–,–,–,–,–,–,–,–,116,115,132,112,131,127,119,37.8,10.4,5.57,3.82,–,–,–,–,–,–,–,–,–,–,–
Nc1ncnc2c1nc(Cl)n2[C@@H]1O[C@H](CO)[C@@H](O)[C@H]1O,–,–,–,–,–,–,–,–,–,–,–,116,123,110,120,120,113,106,110,118,108,14.5,–,–,–,–,–,–,–,–,–,–,–
Nc1ncnc2c1c(-c1cccc(OCc3ccccc3)c1)cn2C1CC(CN2CCCC2)C1 (configuration not stated),113,133,124,124,141,134,119,90.4,94.2,78.1,36.2,–,–,–,–,–,–,–,–,–,–,–,–,–,–,–,–,–,–,–,–,–,–
CCOC(=O)\C1=C\[C@@H](OC(CC)CC)[C@H](NC(C)=O)[C@@H](N)C1,90.4,86.1,94.3,98.9,93.7,107,92.5,93.1,84,86.9,86.4,91.9,92.5,94.9,91.9,95.1,98.9,95.7,102,88.9,103,82.7,84.4,93.4,102,87.4,94.9,106,93.6,91.7,99.3,103,87.1
OC(CN1CCN(c2cccc(Cl)c2)CC1)C(c1ccccc1)c1ccccc1 (configuration not stated),–,–,–,–,–,–,–,–,–,–,–,116,119,133,127,132,126,108,22.7,16.6,14.1,7.62,124,118,124,126,138,125,126,31,27.8,24,9.63
CC1(C)C(N(O)C(=O)Nc2ccc(Cl)cc2)N(c2ccc(Cl)cc2)C(=O)N1CC(=O)N/N=C/C=C/c1ccc([N+](=O)[O-])o1 (configuration not stated),121,118,125,124,124,115,123,116,108,95.8,50.2,116,111,109,120,110,104,102,110,97.4,104,75.1,106,107,103,124,122,121,111,111,108,117,71.3
C[C@]12CC[C@H]3[C@@H](CCC/4=C/C(=O)CC[C@]34C)[C@@H]1CC[C@@H]2OC(=O)CCC5CCCC5,90.8,100,103,113,96.1,113,118,104,111,114,110,86.5,107,119,109,101,108,114,113,114,105,109,94.6,105,116,110,111,116,130,107,116,111,109
CCOc1ccc(Cc2cc([C@@H]3O[C@H](CO)[C@@H](O)[C@H](O)[C@H]3O)ccc2Cl)cc1,–,–,–,–,–,–,–,–,–,–,–,114,133,124,125,138,128,128,136,124,133,129,–,–,–,–,–,–,–,–,–,–,–
CON(C)C(=O)N1/N=C(S[C@@]1(CCCN)C2=CC=CC=C2)/C3=CC(=CC=C3F)F,119,113,117,87.5,34.4,35.8,38.6,38.1,24.6,36.3,21.6,115,114,133,69.4,23.8,32.3,22.3,27.6,23,25.3,21.1,–,–,–,–,–,–,–,–,–,–,–
Cc1c(C)c2c(c(C)c1O)CCC(C)(COc1ccc(CC3SC(=O)NC3=O)cc1)O2 (configuration not stated),122,123,114,133,125,126,142,138,132,116,125,–,–,–,–,–,–,–,–,–,–,–,–,–,–,–,–,–,–,–,–,–,–
C=CCc1ccc(O)c(-c2ccc(O)c(CC=C)c2)c1,111,117,112,120,112,94.8,90.6,93.4,84.3,86.8,88.7,107,105,119,118,122,112,95.3,61,51,60.4,62.6,114,106,107,112,119,111,91.4,54.7,47.9,58.9,53.8
N=C1N[C@H]2[C@H](CS[C@H]2CCCCC(=O)O)N1,86.7,115,121,120,139,126,146,129,138,118,137,113,114,110,109,111,123,107,117,112,120,110,109,122,119,132,121,135,121,131,119,143,136
O=C1NC(=O)/C(=C/c2ccc(-c3ccc(F)cc3O)o2)S1,106,126,125,130,127,114,125,91.8,103,82.7,72.9,113,108,104,114,112,105,103,94.7,95.7,92.7,84.9,112,117,114,103,113,116,91.6,93.9,91.7,75.8,66.9
C[C@@]1(C(=O)Nc2ccc(F)nc2)CCCN1c1nc(Nc2cc(C3CC3)[nH]n2)c2cccn2n1,83.2,108,108,89.9,90.7,71.2,77.4,67.5,44.9,46.3,62,104,108,120,110,108,93.3,112,86,62.9,56.8,68.5,96.6,108,105,102,97.9,85.4,80,86.2,51.6,55.2,60
COc1cc(C(=O)NS(=O)(=O)c2ccccc2C)ccc1Cc1cn(C)c2ccc(NC(=O)OC3CCCC3)cc12,66.5,66.3,75.8,91.5,79.7,77.8,87.3,87.3,87.1,83.8,31.1,77.7,86.9,79.6,80.1,77.6,86.5,82.4,87.6,85.2,80.4,18.9,68,84.5,76.4,92.9,88.8,99.7,83.5,81.6,86.1,81.2,6.79
